{"source": "ChEMBL document CHEMBL3352159", "about": "“Protolichesterinic acid derivatives: α-methylene-γ-lactones as potent dual activators of PPARγ and Nrf2 transcriptional factors” (Bioorg Med Chem Lett, 2014)", "key": {"[1]": {"biological_target": "Nuclear factor erythroid 2-related factor 2 (Mus musculus) (UniProt Q60795)", "sequence (Q60795 whole entry, looked up)": "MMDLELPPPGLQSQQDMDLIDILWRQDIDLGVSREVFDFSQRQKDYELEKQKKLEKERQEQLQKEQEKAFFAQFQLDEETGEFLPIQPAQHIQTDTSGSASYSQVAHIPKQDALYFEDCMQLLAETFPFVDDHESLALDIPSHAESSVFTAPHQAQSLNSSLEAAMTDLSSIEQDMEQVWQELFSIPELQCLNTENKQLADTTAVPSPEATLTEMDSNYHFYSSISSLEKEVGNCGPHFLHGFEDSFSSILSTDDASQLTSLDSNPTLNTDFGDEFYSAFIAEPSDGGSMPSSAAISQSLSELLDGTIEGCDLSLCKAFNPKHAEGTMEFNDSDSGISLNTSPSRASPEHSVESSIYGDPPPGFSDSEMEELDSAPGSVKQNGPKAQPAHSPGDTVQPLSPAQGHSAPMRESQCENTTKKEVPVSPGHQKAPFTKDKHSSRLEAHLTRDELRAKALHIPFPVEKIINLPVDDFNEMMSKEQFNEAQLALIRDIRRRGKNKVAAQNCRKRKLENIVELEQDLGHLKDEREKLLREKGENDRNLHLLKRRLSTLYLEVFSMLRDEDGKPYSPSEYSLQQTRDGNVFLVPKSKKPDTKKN", "assay": "Activation of Nrf2 in mouse peritoneal macrophages assessed as increase in HO-1 mRNA expression treated for 5 hrs by qRT-PCR analysis"}, "[2]": {"biological_target": "T1, Peroxisome proliferator-activated receptor gamma (Mus musculus) (UniProt P37238)", "T1 sequence (whole entry)": "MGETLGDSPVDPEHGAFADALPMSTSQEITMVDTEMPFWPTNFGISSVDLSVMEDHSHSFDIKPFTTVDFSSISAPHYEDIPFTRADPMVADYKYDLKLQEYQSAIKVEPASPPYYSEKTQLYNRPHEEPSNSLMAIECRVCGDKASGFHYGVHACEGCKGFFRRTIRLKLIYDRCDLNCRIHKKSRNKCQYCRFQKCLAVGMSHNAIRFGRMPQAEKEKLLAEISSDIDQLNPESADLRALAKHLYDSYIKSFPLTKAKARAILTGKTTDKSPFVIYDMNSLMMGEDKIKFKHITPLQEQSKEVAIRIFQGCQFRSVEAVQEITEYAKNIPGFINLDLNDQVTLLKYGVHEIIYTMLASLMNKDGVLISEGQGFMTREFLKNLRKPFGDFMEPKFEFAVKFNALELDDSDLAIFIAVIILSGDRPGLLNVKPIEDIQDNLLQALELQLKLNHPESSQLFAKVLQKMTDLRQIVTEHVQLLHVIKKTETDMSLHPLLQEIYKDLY", "assay": "Activation of PPARgamma in mouse peritoneal macrophages assessed as increase in CD36 mRNA expression treated for 5 hrs by qRT-PCR analysis"}, "[3]": {"biological_target": "Nuclear factor erythroid 2-related factor 2 (Mus musculus) (UniProt Q60795)", "assay": "Activation of Nrf2 in mouse peritoneal macrophages assessed as increase in NQO-1 mRNA expression treated for 5 hrs by qRT-PCR analysis"}, "[4]": {"assay": "Cytotoxicity against human A375M cells after 4 days by MTT assay", "assay_type": "functional, cell-based", "conditions": "96 h"}, "[5]": {"system": "Peritoneal macrophage cell", "assay": "Induction of Dectin-1 mRNA expression in mouse peritoneal macrophages isolated from PPARgamma -/- mouse treated at 5 uM for 5 hrs by qRT-PCR analysis", "assay_type": "functional, cell-based"}, "[6]": {"system": "Peritoneal macrophage cell", "assay": "Induction of NQO-1 mRNA expression in mouse peritoneal macrophages isolated from PPARgamma -/- mouse treated at 1 uM for 5 hrs by qRT-PCR analysis", "assay_type": "functional, cell-based"}, "[7]": {"system": "Peritoneal macrophage cell", "assay": "Induction of HO-1 mRNA expression in mouse peritoneal macrophages isolated from PPARgamma -/- mouse treated at 1 uM for 5 hrs by qRT-PCR analysis", "assay_type": "functional, cell-based"}, "[8]": {"assay": "Cytotoxicity against mouse peritoneal macrophages after 24 hrs", "assay_type": "cell-based", "conditions": "Peritoneal macrophage cell"}, "[9]": {"system": "Peritoneal macrophage cell", "assay": "Induction of Dectin-1 mRNA expression in mouse peritoneal macrophages isolated from PPARgamma -/- mouse treated at 1 uM for 5 hrs by qRT-PCR analysis", "assay_type": "functional, cell-based"}, "[10]": {"system": "Peritoneal macrophage cell", "assay": "Induction of CD36 mRNA expression in mouse peritoneal macrophages isolated from PPARgamma -/- mouse treated at 1 uM for 5 hrs by qRT-PCR analysis", "assay_type": "functional, cell-based"}, "[11]": {"biological_target": "T1, Peroxisome proliferator-activated receptor gamma (Mus musculus)", "assay": "Activation of PPARgamma in mouse peritoneal macrophages assessed as increase in Dectin-1 mRNA expression treated for 5 hrs by qRT-PCR analysis"}}, "note": "The source made the active and inactive calls. The calls are words filed in the database; no cut-off is given here."}
{"smiles": "C=C1CC(CCCC)OC1=O", "note": "(stereo unspecified)", "values": [{"measurement": "Activity", "setting": "[1]", "result": "Active"}, {"measurement": "Activity", "setting": "[2]", "result": "Active"}, {"measurement": "Activity", "setting": "[3]", "result": "Active"}, {"measurement": "IC50", "setting": "[4]", "result": 17.3, "unit": "µM"}, {"measurement": "Activity", "setting": "[5]", "result": "inactive"}, {"measurement": "Activity", "setting": "[6]", "result": "inactive"}, {"measurement": "Activity", "setting": "[7]", "result": "inactive"}, {"measurement": "IC50", "setting": "[8]", "result": 31.2, "unit": "µM"}, {"measurement": "Activity", "setting": "[9]", "result": "inactive"}, {"measurement": "Activity", "setting": "[10]", "result": "inactive"}, {"measurement": "Activity", "setting": "[11]", "result": "Active"}]}
{"smiles": "C=C1C(=O)OC(c2ccccc2)C1CCCC", "note": "(mixture of isomers)", "values": [{"measurement": "Activity", "setting": "[1]", "result": "Active"}, {"measurement": "Activity", "setting": "[2]", "result": "Active"}, {"measurement": "Activity", "setting": "[3]", "result": "Active"}, {"measurement": "IC50", "setting": "[4]", "result": 7.8, "unit": "µM"}, {"measurement": "Activity", "setting": "[5]", "result": "inactive"}, {"measurement": "Activity", "setting": "[6]", "result": "inactive"}, {"measurement": "Activity", "setting": "[7]", "result": "inactive"}, {"measurement": "IC50", "setting": "[8]", "result": 12.7, "unit": "µM"}, {"measurement": "Activity", "setting": "[9]", "result": "inactive"}, {"measurement": "Activity", "setting": "[10]", "result": "inactive"}, {"measurement": "Activity", "setting": "[11]", "result": "Active"}]}
{"smiles": "C=C1C(=O)OC(c2ccccc2)C1c1ccccc1", "note": "(mixture of isomers)", "values": [{"measurement": "IC50", "setting": "[4]", "result": 6.3, "unit": "µM"}]}
{"smiles": "CCCCCCCCCCCCCC1C=C(C)C(=O)O1", "note": "(racemic)", "values": [{"measurement": "IC50", "setting": "[4]", "result": "> 100", "unit": "µM"}, {"measurement": "Activity", "setting": "[5]", "result": "inactive"}, {"measurement": "IC50", "setting": "[8]", "result": "> 100", "unit": "µM"}, {"measurement": "Activity", "setting": "[9]", "result": "inactive"}, {"measurement": "Activity", "setting": "[11]", "result": "Active"}]}
{"smiles": "C=C1CC(CCCCCCCCCCCCC)OC1=O", "note": "(stereo unspecified)", "values": [{"measurement": "IC50", "setting": "[4]", "result": 3.9, "unit": "µM"}]}
{"smiles": "CCCCCCCCCCCCC[C@H]1OC(=O)C(C)=C1C(=O)O", "values": [{"measurement": "IC50", "setting": "[4]", "result": 72, "unit": "µM"}, {"measurement": "Activity", "setting": "[5]", "result": "inactive"}, {"measurement": "IC50", "setting": "[8]", "result": "> 100", "unit": "µM"}, {"measurement": "Activity", "setting": "[9]", "result": "inactive"}, {"measurement": "Activity", "setting": "[11]", "result": "Active"}]}
{"smiles": "C=C1C(=O)OC(CCc2ccccc2)C1CCCC", "note": "(mixture of isomers)", "values": [{"measurement": "IC50", "setting": "[4]", "result": 5, "unit": "µM"}]}
{"smiles": "C=C1C(=O)OC(CCc2ccccc2)C1CCc1ccccc1", "note": "(stereo unspecified)", "values": [{"measurement": "IC50", "setting": "[4]", "result": 2.7, "unit": "µM"}]}
{"smiles": "CN(CCOc1ccc(CC2SC(=O)NC2=O)cc1)c1ccccn1", "note": "(stereo unspecified)", "values": [{"measurement": "Activity", "setting": "[5]", "result": "inactive"}, {"measurement": "Activity", "setting": "[9]", "result": "inactive"}, {"measurement": "Activity", "setting": "[11]", "result": "Active"}]}
{"smiles": "C=C1C(=O)OC(c2ccccc2)C1CCc1ccccc1", "note": "(mixture of isomers)", "values": [{"measurement": "IC50", "setting": "[4]", "result": 2.8, "unit": "µM"}]}
{"smiles": "C=C1C(=O)O[C@@H](CCCCCCCCCCCCC)[C@@H]1C(=O)O", "note": "[PROTOLICHESTERINIC ACID]", "values": [{"measurement": "IC50", "setting": "[4]", "result": 8.6, "unit": "µM"}]}
{"smiles": "C=C1C(=O)OC(CCCC)C1CCc1ccccc1", "note": "(stereo unspecified)", "values": [{"measurement": "IC50", "setting": "[4]", "result": 5.5, "unit": "µM"}]}
{"smiles": "C=C1CC(CCc2ccccc2)OC1=O", "note": "(stereo unspecified)", "values": [{"measurement": "IC50", "setting": "[4]", "result": 8.7, "unit": "µM"}]}
{"smiles": "C=C1C(=O)OC(CCCCCCCCCCCCC)C1CC", "note": "(mixture of isomers)", "values": [{"measurement": "IC50", "setting": "[4]", "result": 4.1, "unit": "µM"}]}
{"smiles": "C=C1C(=O)OC(CCCCCCCCCCCCC)C1CCc1ccccc1", "note": "(mixture of isomers)", "values": [{"measurement": "IC50", "setting": "[4]", "result": 3.3, "unit": "µM"}]}
{"smiles": "C=C1CC(c2ccccc2)OC1=O", "note": "(stereo unspecified)", "values": [{"measurement": "IC50", "setting": "[4]", "result": 6.7, "unit": "µM"}]}
